Patent US5462848A, “Color photographic materials including magenta coupler, inhibitor-releasing coupler and carbonamide compound, and methods” (Eastman Kodak Company, priority 1993, dated 1995)

Assay: Potentiometric titration of dispersion pKa of couplers as aqueous dispersions
Type: physicochemical
Details: 0.50M potassium counter ion
Source text: Preferred two-equivalent magenta dye-forming couplers for the practice of this invention include those that have pKa values of less than 10.0 when dispersed together with a coupler solvent. Potentiometric titrations were used to measure pKa values for some of the preferred couplers of the invention as aqueous dispersions. In these two-phase mixtures, the term pKa denotes the aqueous buffer pH at which half of the coupler in the oil phase is ionized or ion paired. Table I lists dispersion pKa values measured with 0.50M potassium counter ion.

[1] = coupler solvent S2, coupler:solvent 1:2, aqueous dispersion
[2] = coupler solvent C5, coupler:solvent 1:1, aqueous dispersion
[3] = coupler solvent S1, coupler:solvent 1:1, aqueous dispersion

| pKa (0.5M K+) [1] | pKa (0.5M K+) [2] | pKa (0.5M K+) [3] | pKa (0.5M K+) (coupler solvent C1, coupler:solvent 1:2, aqueous dispersion) | Structure (SMILES) |
| --- | --- | --- | --- | --- |
| 7.9 | – | – | – | CCCCCCCCCCCCNS(=O)(=O)c1ccc(NC2=NN(c3c(Cl)cc(Cl)cc3Cl)C(=O)C2Sc2ccccc2NC(=O)CCCCCCCCCCC)c(Cl)c1 (stereo not drawn) [M8] |
| – | 8.2 | 7.9 | – | CCCCCCCCCCCCCC(=O)Nc1ccc(Cl)c(NC2=NN(c3c(Cl)cc(Cl)cc3Cl)C(=O)C2Sc2ccccc2NC(=O)C(CC)Oc2ccc(C(C)(C)CC)cc2C(C)(C)CC)c1 (stereo not drawn) [M3] |
| 7.5 | – | – | – | CCCCCCCCCCCCCCCC(=O)Nc1ccc(Cl)c(NC2=NN(c3c(Cl)c(Cl)c(Cl)c(Cl)c3Cl)C(=O)C2Sc2ccccc2NC(=O)OCc2ccccc2)c1 (stereo not drawn) [M7] |

Continued, compound first:

| Structure (SMILES) | pKa (0.5M K+) [1] | pKa (0.5M K+) [2] | pKa (0.5M K+) [3] | pKa (0.5M K+) (coupler solvent C1, coupler:solvent 1:2, aqueous dispersion) |
| --- | --- | --- | --- | --- |
| CCCCCCCCCCCCNS(=O)(=O)c1ccc(NC2=NN(c3c(Cl)cc(Cl)cc3Cl)C(=O)C2Sc2cc(C(C)(C)CC(C)(C)C)ccc2OCCCC)c(Cl)c1 (stereo not drawn) [M1] | 8.5 | – | – | – |
| CCCCCCCCCCCCNS(=O)(=O)c1ccc(NC2=NN(c3c(Cl)cc(Cl)cc3Cl)C(=O)C2Sc2ccccc2NC(=O)C(CC)Oc2ccc(C(C)(C)CC)cc2C(C)(C)CC)c(Cl)c1 (stereo not drawn) [M4] | – | 8.0 | 7.6 | – |
| CCCCCCCCCCCCCCCCCCNS(=O)(=O)c1ccc(Cl)c(NC2=NN(c3c(Cl)cc(Cl)cc3Cl)C(=O)C2Sc2cc(C(C)C)ccc2C(C)C)c1 (stereo not drawn) [M20] | 8.4 | – | – | 8.9 |
